The values that follow come from patent US12576094B2, “Combination cannabinoid-phenylethanoid formulation for treatment of inflammation and methods related thereto” (Canole LLC, priority 2019, dated 2026).

One data set has as its system C-28/I2 chondrocytes. Nature of the data set: toxicity screen to establish maximum tolerable concentrations in chondrocytes. An excerpt:
A clonal derivative of ATCC-certified normal chondrocytes was used for a study to determine cytokine expression. The parent line was originally derived from costal cartilage of an adolescent person. The cell line used is C-28/I2 accession number CVCL_0187. The cells were immortalized via retroviral vector-mediated SV40 Large T antigen expression. Cells were confirmed negative for mycoplasma contamination and genotyped by STR analysis to verify cell identity. This cell line is widely used as a model for studying normal and pathological cartilage repair mechanisms and inflammation.
The cells were cultured at 37° C. with 5% CO2, DMEM/F12 media supplemented with 10% heat-inactivated fetal bovine serum. Antimicrobials were not added to the media. Cells were maintained between 40 and 80% confluency to avoid terminal differentiation. Cells used for the experiments had been passaged no more than ten times prior to each experiment.
A series of pilot studies were performed to design the final full-scale experiment. First, a toxicity screen for each test compound was performed to establish maximum tolerable concentrations in this model system. Second, assays were run to establish the optimal means of inducing a pro-inflammatory state in the cell culture system. Third, conditions were tested to set the most favorable dilution scheme in order to maintain samples within the linear range of detection for each analyte. To establish the test concentrations for each test compound, chondrocytes were treated with a serial dilution of each compound, for 24 and 48 hours under serum free conditions. Oleocanthal or CBD were tested at two-fold dilutions down from a concentration of 50 micromolar (μM).

Data set [1] concerns IL-13 production by chondrocytes (C-28/I2). Nature of the data set: cytokine array of conditioned media from IL1β-stimulated chondrocytes: IL-13. Type of data set: cell-based, human. Particulars: Moderate level (2.00 μM) of CBD alone, IL1β 10 ng/ml, 24 hours, no serum, FIG. 2. An excerpt:
Antimicrobials were not added to the media.
Three wells were utilized per sample condition.

In the case of `C/C=C(/C=O)[C@@H](CC=O)CC(=O)OCCc1ccc(O)cc1` [oleocanthal], the maximum tolerable concentration in the data set on C-28/I2 chondrocytes (human, 24 h) is 6 µM.

`O=C(O)c1cccnc1` [niacin, niacin/nicotinic acid] yielded a maximum tolerable concentration with C-28/I2 chondrocytes (human, 24 h) of 1000 µM.

Take `C=C(C)[C@@H]1CCC(C)=C[C@H]1c1c(O)cc(CCCCC)cc1O` [CBD, cannabidiol]: the “generated amount of IL13” value in data set [1] is “greatly reduced”. The same molecule came in with a maximum tolerable concentration with C-28/I2 chondrocytes (chondrocytes, 24 hours post-treatment, serum free) of 6 µM.
